# Several values for one entry are separate records, joined by “and”; a condition that tells them apart may be missing. Equal entries are not always repeated. Where two headings read alike, the source gives them in different places.
# Experiments:
# Aβ1-40 [1] = assay: Thioflavine T fluorometric assay of amyloid formation by Aβ1-40; format: biochemical; details: for % of amyloid Aβ1-40: amyloid remaining, 30 μg Aβ with 10-fold molar excess of peptide, 2 days, room temperature, 0.1M tris pH 7.6, Aβ alone = 100; for amyloid formed, as % of the amyloid detectable in the absence of inhibitor: 24 h, Aβ 1 mg/ml
# Sequence of Aβ1-40 (P05067 18-40): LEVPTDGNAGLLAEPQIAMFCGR
# Aβ1-42 = Aβ1-42 (Homo sapiens, UniProt P05067); assay: Thioflavine T fluorometric assay of amyloid formation by Aβ1-42; format: biochemical; details: for % of amyloid Aβ1-42: amyloid remaining, 30 μg Aβ with 10-fold molar excess of peptide, 2 days, room temperature, 0.1M tris pH 7.6, Aβ alone = 100
# Sequence of Aβ1-42 (P05067 18-42): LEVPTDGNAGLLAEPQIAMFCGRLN
# [2] = molecular target: T1, Aβ1-40 with human plasma apolipoprotein E (Homo sapiens, UniProt P05067); assay: Promotion of Aβ fibrillogenesis induced by apolipoprotein E, thioflavine T assay; format: biochemical; details: 30 μg Aβ1-40, 2.4 μg apoE, 1:10 (Aβ:iAβ), 24 h, room temperature
# T1 construct: 30 μg of Aβ1-40 were incubated with or without 2.4 μg of human plasma apolipoprotein E; made in house; host or cells: Aβ1-40: chemical solid-phase synthesis
# Protocol: Samples of Aβ alone or Aβ/apoE were incubated also with 1:10 (Aβ:iAβ) of the inhibitor. All the incubations were performed for 24 h at room temperature. Amyloid formation was evaluated by the thioflavine T fluorometric assay. The average of two different experiments is shown.
# Aβ1-40 [3] = assay: Aβ-iAβ binding by quenching of intrinsic Tyr10 fluorescence of Aβ
# [4] = molecular target: Aβ with heparan-sulfate proteoglycan (Homo sapiens, UniProt P05067); assay: Heparan-sulfate proteoglycan-induced Aβ fibrillogenesis; format: biochemical; details: preliminary experiments
# Sequence of Aβ with heparan-sulfate proteoglycan (P05067 672-711 limits assumed): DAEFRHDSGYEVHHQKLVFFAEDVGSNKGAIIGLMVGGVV
# Aβ1-40 fibrils = Aβ1-40 fibrils (Homo sapiens, UniProt P05067); assay: Dissolution of preformed Aβ1-40 fibrils, fluorometric quantitation; format: biochemical
# Sequence of Aβ1-40 fibrils (P05067 672-711): as the sequence (P05067 672-711 limits assumed) above
# [5] = Aggregation of the peptide incubated alone; format: physicochemical; details: for amyloid-like material formed by the peptide alone, electron microscopy: 6 days, same concentration as with Aβ
# Protocol: Based on these criteria, an 11 amino acid peptide, called inhibitor of Aβ fibrillogenesis peptide (iAβ) was designed, which has a low probability of adopting a β-sheet conformation due to the presence of proline residues (FIG. 9). The circular dichroism spectrum of iAβ in aqueous solution was typical of unordered structures (FIG. 10). Samples of iAβ at different concentrations as well as samples incubated for several days have similar spectra (FIG. 10).
# The inhibition of fibril formation and the dissolution of preformed fibrils by iAβ was also analyzed by negative-staining electron microscopy (FIGS. 15a -f). Aβ1-40 (2 mg/ml) preincubated for 6 days at 37° C. formed typical 8-10 nm unbranched fibrils (Castano et al., biochem. Biophys. Res. Commun. 141:782-789, 1986) (FIG. 15a).
# Aβ1-40 [6] = assay: Negative-staining electron microscopy of Aβ1-40 fibril formation and dissolution; format: biochemical; details: for effect on Aβ1-40 fibril formation by electron microscopy: Aβ1-40 2 mg/ml, 40-fold excess from the start, 6 days, 37° C.
# [7] = system: amyloid-A (AA) deposition; assay: Experimental murine model of amyloid-A amyloidosis (AEF and silver nitrate), amyloid in spleen; format: in vivo, BALB/c mice
# Aβ1-42 fibrils = Aβ1-42 fibrils (Homo sapiens, UniProt P05067); assay: Dissolution of preformed Aβ1-42 fibrils, fluorometric quantitation; format: biochemical; details: 40-fold molar excess of iAβ, 24 h incubation
# PrP106-126 = PrP106-126 (Homo sapiens, UniProt P04156); details: same concentration as iPrP-12aa
# [8] = background art; cited from earlier work
# [9] = system: amyloid A (SEQ ID NO: 13); assay: Fibril formation by the amyloidogenic peptide of amyloid A; format: biochemical; details: 1 mg/ml, 24 hours, molar ratio 1:5 or 1:20
# Protocol: (§1) FIG. 8 is a bar graph showing the effect of anti-amyloid peptide 1 on the amyloid formation by Aβ and of peptides derived from the amyloidogenic sequence of gelsolin amyloid and amyloid A. Either β or the fifteen amino acid peptides containing the amyloidogenic sequence of gelsolin amyloid (SEQ ID NO: 12) and amyloid A (SEQ ID NO: 13) were incubated in a concentration of 1 mg/ml for 24 hours without and with anti-amyloid peptide 1 in a molar ratio of 1:5 or 1:20.
# [10] = system: gelsolin amyloid (SEQ ID NO: 12); assay: Fibril formation by the amyloidogenic peptide of gelsolin amyloid; format: biochemical; details: 1 mg/ml, 24 hours, molar ratio 1:5 or 1:20
# Protocol: as §1
# Aβ [11] = molecular target: T2, Aβ (Homo sapiens, UniProt P05067); assay: Redissolution of preformed Aβ fibrils by anti-amyloid peptide 1; format: biochemical; details: molar ratio 1:50 (Aβ:anti-amyloid peptide 1), 15 minutes to 24 hours
# T2 sequence (P05067 672-711 limits assumed): as above
# Aβ [12] = molecular target: T2, Aβ; assay: Aβ amyloid fibril formation in vitro (Aβ variant not named); format: biochemical; details: 50-fold molar excess over soluble amyloid monomers
# [13] = Kisilevsky et al., 1995; cited from earlier work
compound,measurement,setting,value
CP2: control peptide (GYLTVAAVFRG) [reference compound],% of amyloid Aβ1-40,Aβ1-40 [1],111.3 ± 4.1%
same,% of amyloid Aβ1-42,Aβ1-42,125.3 ± 3.9%
iAβ3: shorter derivative of iAβ; valine inserted into the sequence of SEQ ID NO:18 (LPFFVD),% of amyloid Aβ1-40,Aβ1-40 [1],90.1 ± 1.3%
same,% of amyloid Aβ1-42,Aβ1-42,87.1 ± 6.1%
"iAβ: 11 amino acid peptide partially homologous to Aβ residues 17-21, with proline residues and charged ends (RDLPFFPVPID)",effect on apo E-induced promotion of Aβ fibrillogenesis,[2],blocked the promotion of Aβ fibrillogenesis
same,"amyloid formed, as % of the amyloid detectable in the absence of inhibitor",Aβ1-40 [1]; 5-fold molar excess of iAβ,33.9%
same,"amyloid formed, as % of the amyloid detectable in the absence of inhibitor",Aβ1-40 [1]; 20-fold molar excess of iAβ,13.7%
same,% of amyloid Aβ1-40,Aβ1-40 [1],25.5 ± 0.7%
same,"maximum quenching of Aβ fluorescence, % of total fluorescence","Aβ1-40 [3]; at approximately 4 μM of iAβ, 25° C., 5 mM Tris pH 7.4",12.6%
same,Kd,"Aβ1-40 [3]; non-linear regression of binding data to a rectangular hyperbola, read-out: relative dissociation constant",0.0759 ± 0.0065 µM
same,effect on heparan-sulfate proteoglycan-induced Aβ fibrillogenesis,[4],blocked
same,incubation time to maximum level of fibril dissolution,"Aβ1-40 fibrils; 40-fold molar excess of iAβ (FIG. 14B), Aβ variant not stated",2 days
same,dissolution of preformed Aβ1-40 fibrils,"Aβ1-40 fibrils; 40-fold molar excess of iAβ, 24 h incubation",almost complete dissolution
same,"amyloid-like material formed by the peptide alone, electron microscopy",[5],formed no amyloid-like material
same,aggregation of the peptide,[5]; even at high concentrations (4 mg/ml) or after more than 30 days of incubation,did not aggregate
same,inhibition of amyloid formation,"Aβ1-42; 5-fold molar excess of iAβ over Aβ1-42, 24 h",28.7%
same,inhibition of amyloid formation,"Aβ1-42; 20-fold molar excess of iAβ over Aβ1-42, 24 h",72.3%
same,inhibition of amyloid formation,"Aβ1-42; 40-fold molar excess of iAβ over Aβ1-42, 24 h",80.6%
same,% of amyloid Aβ1-42,Aβ1-42,57.9 ± 1.3%
same,effect on Aβ1-40 fibril formation by electron microscopy,Aβ1-40 [6],only amorphous aggregates were obtained
same,dissolution of preformed Aβ1-40 fibrils by electron microscopy,"Aβ1-40 [6]; fibrils preformed 6 days at 37° C., then 2 days with 1:40 molar ratio Aβ:iAβ",almost completely dissolved
same,decrease of the area occupied by amyloid in the spleen versus animals treated without the inhibitor,"[7]; 5 mg iAβ injected together with AEF after 24 h preincubation, 5 days",approximately 86.4%
same,"amyloid in spleen by image analysis, AEF/SN + iAβ, single animal","[7]; AEF 100 μg preincubated 24 h with 5 mg peptide, sacrificed at 5 days, AEF/SN alone average 31.2",4.35 and 3.68 and 5.32 and 3.67
same,"amyloid in spleen by image analysis, AEF/SN + iAβ, Average ± SE","[7]; four animals, AEF 100 μg preincubated 24 h with 5 mg peptide, 5 days, AEF/SN alone 31.2 ± 0.75",4.26 ± 0.39
same,Aβ1-42 fibril reduction,Aβ1-42 fibrils,51%
CP1: unrelated control peptide of 12 amino acids (VHVSEEGTEPA) [reference compound],% of amyloid Aβ1-40,Aβ1-40 [1],98.4 ± 1.2%
same,% of amyloid Aβ1-42,Aβ1-42,101.3 ± 1.9%
same,effect on amyloid formation by PrP106-126,PrP106-126,No significant effect
iAβ2: seven amino acid residue shorter derivative of iAβ (LPFFPVD),% of amyloid Aβ1-40,Aβ1-40 [1],36.7 ± 4.8%
same,% of amyloid Aβ1-42,Aβ1-42,61.3 ± 3.0%
"Leu Val Phe Phe Ala [Aβ17-21, reference compound]",% of amyloid Aβ1-40,Aβ1-40 [1],89.2 ± 2.7%
same,% of amyloid Aβ1-42,Aβ1-42,92.3 ± 3.4%
"COc1cccc2c1C(=O)c1c(O)c3c(c(O)c1C2=O)C[C@@](O)(C(=O)CO)C[C@@H]3O[C@H]1C[C@H](N)[C@H](I)[C@H](C)O1 [IDOX, Anthracycline 4′-iodo-4′-deoxy-doxorubicin]",toxicity,[8],extremely toxic
anti-amyloid peptide 1: 15-amino acid anti-amyloid peptide (SRGDLPFFPVPIGDS),inhibition of fibril formation of the amyloid-A peptide,[9],inhibits the fibril formation
same,inhibition of fibril formation of the gelsolin related amyloid peptide,[10],inhibits the fibril formation
same,dissolution of preformed Aβ fibrils,Aβ [11],Dissolution of preformed fibrils also occurred
same,inhibition of amyloid fibril formation,Aβ [12],90%
CP3: control peptide (PADVPLAPRAVD) [reference compound],% of amyloid Aβ1-40,Aβ1-40 [1],87.7 ± 2.0%
same,% of amyloid Aβ1-42,Aβ1-42,94.4 ± 1.4%
"iAβ4: five residue derivative of iAβ; proline substituted for valine of Aβ 17-21, aspartic acid at the end (LPFFD)",% of amyloid Aβ1-40,Aβ1-40 [1],28.7 ± 1.7%
same,% of amyloid Aβ1-42,Aβ1-42,45.4 ± 0.6%
control peptide: 12 residue non-related control peptide (VHVSEEGTEPEA) [reference compound],effect on amyloid formation by Aβ1-40,Aβ1-40 [1]; FIGS. 12 and 13,did not alter amyloid formation
same,"amyloid-like material formed by the peptide alone, electron microscopy",[5],formed no amyloid-like material
same,effect on amyloid formation by Aβ1-42,Aβ1-42; FIG. 12,did not alter amyloid formation
same,effect on Aβ1-40 fibril formation by electron microscopy,Aβ1-40 [6],did not produce any effect
iAβ5: shorter derivative of iAβ (LPFF),% of amyloid Aβ1-40,Aβ1-40 [1],92.1 ± 1.3%
same,% of amyloid Aβ1-42,Aβ1-42,82.4 ± 5.0%
Pro-Phe-Phe [iAβ6],% of amyloid Aβ1-40,Aβ1-40 [1],108.1 ± 7.9%
same,% of amyloid Aβ1-42,Aβ1-42,88.9 ± 2.6%
iAβ1: shorter derivative of iAβ (RDLPFFPVD),% of amyloid Aβ1-40,Aβ1-40 [1],55.2 ± 2.1%
same,% of amyloid Aβ1-42,Aβ1-42,85.7 ± 11.6%
poly- (vinylsulfonate),toxicity,[13],acutely toxic
Aβ18-21: short Aβ fragment (VFFA) [reference compound],% of amyloid Aβ1-40,Aβ1-40 [1],105 ± 3.2%
same,% of amyloid Aβ1-42,Aβ1-42,98.5 ± 5.3%
